US8148097B2, “Screening method for identification of compounds with calcium-independent phospholipase A2β (iPLA2β) modulating activity” (Washington University, priority 2005, dated 2012)

Legend:
[1] = target: T1, iPLA2β (Cricetulus griseus, UniProt A0A3L7I2I8); assay: ESI-MS analysis of iPLA2β reaction products from POPC/BODIPY-PC vesicles; assay type: biochemical; conditions: 5 mol % oleoyl-CoA, FIG. 11H
T1 construct: (His)6; made in house; host or cells: Sf9 insect cells (baculovirus)
T1 sequence (A0A3L7I2I8 1-752 isoform A0A3L7I2I8-2): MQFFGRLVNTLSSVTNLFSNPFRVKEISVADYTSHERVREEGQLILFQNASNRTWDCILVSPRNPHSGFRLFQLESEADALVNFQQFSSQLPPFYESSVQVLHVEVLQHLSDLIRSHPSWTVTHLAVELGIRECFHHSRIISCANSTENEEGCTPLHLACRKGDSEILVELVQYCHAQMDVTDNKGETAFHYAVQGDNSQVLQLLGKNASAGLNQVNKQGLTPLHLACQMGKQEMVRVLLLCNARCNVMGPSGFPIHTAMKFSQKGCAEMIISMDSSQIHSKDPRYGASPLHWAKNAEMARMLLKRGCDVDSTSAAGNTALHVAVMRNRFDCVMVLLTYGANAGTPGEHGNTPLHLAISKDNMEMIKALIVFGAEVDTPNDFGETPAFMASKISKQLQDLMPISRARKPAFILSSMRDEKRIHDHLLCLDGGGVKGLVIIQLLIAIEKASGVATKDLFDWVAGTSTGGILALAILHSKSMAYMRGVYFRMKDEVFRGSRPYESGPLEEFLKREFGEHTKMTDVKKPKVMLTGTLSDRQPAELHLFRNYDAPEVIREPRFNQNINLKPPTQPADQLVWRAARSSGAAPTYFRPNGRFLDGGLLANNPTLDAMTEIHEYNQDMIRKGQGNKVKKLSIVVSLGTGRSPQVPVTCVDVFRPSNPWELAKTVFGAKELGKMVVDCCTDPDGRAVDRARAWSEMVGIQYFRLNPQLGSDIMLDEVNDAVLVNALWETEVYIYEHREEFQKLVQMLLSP
Experimental: (§1) FIGS. 11A-11D—Purified iPLA2β+/−Ca^2+/CaM was incubated with POPC/BODIPY-PC (95:5 mol %) host vesicles for 2 min at 37° C. with the indicated concentrations of guest oleoyl-CoA. Relative fluorescence was recorded utilizing 495 nm excitation and 515 nm emission wavelengths as described in Experimental Procedures. FIGS. 11E-11H—ESI-MS analysis of phosphatidylcholine molecular species from the reactions described in panels A and D. Spectra were acquired in the positive ion mode with the indicated internal standards as described in Experimental Procedures. FIG. 11I—Purified iPLA2β in the presence or absence of Ca^2+/CaM was incubated with 1-palmitoyl-2-[1-^14C]-oleoyl-sn-glycero-3-phosphocholine (100 μM) host vesicles with or without guest oleoyl-CoA (10 μM) for 3 min at 37° C. Radiolabeled fatty acid was extracted into butanol, resolved by TLC, and quantified by scintillation spectrometry as described in Experimental Procedures.
To confirm that iPLA2β was in fact hydrolyzing BODIPY-PC and that the increase in fluorescence observed was not due to either protein-fluorophore or acylCoA-fluorophore interactions, the reaction substrates and products were extracted into chloroform/methanol in the presence of internal standards and subsequently quantified and analyzed by ESI-MS (83). […]

[2] = target: T1, iPLA2β; assay: Real-time fluorescence BODIPY-PC assay of iPLA2β phospholipase A2 activity; assay type: biochemical
Experimental: as §1
Phospholipase A2 and Acyl-CoA Hydrolase Enzymatic Assays—Purified recombinant iPLA2β(His)6 (peptide disclosed as SEQ ID NO: 4) (0.1-1 μg) was incubated with radiolabeled phospholipid or acyl-CoA in 25 mM Tris-HCl, pH 7.2 containing 1 mM EGTA (200 μl final volume) for 1-2 mm at 37° C. […] Incorporation of acyl-CoA into the POPC/DOPS vesicles employed was determined as described previously (64). Reactions were terminated by extraction of the released radiolabeled fatty acids into 100 μl butanol, separation of fatty acids from unreacted substrate by thin layer chromatography, and quantitation by scintillation spectroscopy as previous described (65). For tests examining the effects of acyl-CoAs on calmodulin-mediated inhibition of iPLA2β, phospholipase A2 activity was continuously measured utilizing a SPECTRAmax GEMINI XS Dual-Scanning Microplate Spectrofluorometer (Molecular Devices). […] Fluorescence readings were acquired at 20 sec intervals for 5 mm at 37° C. utilizing excitation/emission wavelengths of 495/515 nm, respectively. […]

How did the “effect on inhibition of iPLA2β by Ca2+/CaM” value [1] turn out when `CCCCCCCC/C=C\CCCCCCCC(=O)SCCNC(=O)CCNC(=O)[C@H](O)C(C)(C)COP(=O)(O)OP(=O)(O)OC[C@H]1O[C@@H](n2cnc3c(N)ncnc32)[C@H](O)[C@@H]1OP(=O)(O)O` [oleoyl-CoA] was run?
The value was “completely reversed the inhibition”.

And the “reversal of calmodulin-mediated inhibition of iPLA2β phospholipase A2 activity” value ([2]; 5 μM oleoyl-CoA)?
The value was “significant reversal”.

And the “activity of CaM-inhibited iPLA2β, % of initial activity” value ([2]; 1 mol % oleoyl-CoA, FIG. 11B)?
Its value is “≈ 40%”.

What about the “effect on CaM mediated inhibition of iPLA2β” value ([2]; 2.5-5 mol % oleoyl-CoA, FIG. 11C-D) of the same molecule?
The value was “completely eliminated CaM mediated inhibition”.
